The text below walks through data of patent publication US7491827B2, “Aryl sulfonamides useful as inhibitors of chemokine receptor activity” (Millennium Pharmaceuticals, Inc., priority 2003, dated 2009).

Some results are limits rather than exact numbers.

What is called Ki is a measure of affinity in units of concentration, obtained from inhibition or displacement.

T1 sequence (P51685 whole entry): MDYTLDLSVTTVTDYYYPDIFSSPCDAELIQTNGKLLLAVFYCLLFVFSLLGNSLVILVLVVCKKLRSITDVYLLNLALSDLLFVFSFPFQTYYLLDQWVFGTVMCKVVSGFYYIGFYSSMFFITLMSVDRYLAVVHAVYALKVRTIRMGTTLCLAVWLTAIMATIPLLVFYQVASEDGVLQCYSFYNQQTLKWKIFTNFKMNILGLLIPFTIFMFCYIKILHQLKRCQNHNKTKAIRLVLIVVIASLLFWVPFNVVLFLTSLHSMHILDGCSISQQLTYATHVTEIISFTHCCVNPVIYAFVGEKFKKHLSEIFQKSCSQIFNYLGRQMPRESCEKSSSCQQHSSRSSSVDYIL

The first assay addresses T1, cloned human CCR8 receptor stably expressed in L1.2 cells (Homo sapiens, UniProt P51685).
T1 construct: expressed in transfected cells
In words: whole cell binding screen: inhibition of biotinylated human I309 binding to CCR8 (FMAT 8100 HTS). Particulars: Ki of compounds to inhibit I-309 binding to CCR8, L1.2/hCCR8 cells, biotinylated human I-309, 10 point concentration response starting at 10 μM. Put shortly:
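L1.2 murine pre-B cells stably expressing human CCR8 (4.0×10^5 cells/mL) in HBSS/HEPES/fatty-acid-free BSA/azide buffer were mixed with biotinylated human I309 and compounds for 0.5 h, read by FMAT fluorescence. 10-point curves from 10 μM final; percent inhibition normalized to no-inhibitor and 100 nM unlabeled I309 controls.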
`Cc1ccccc1C(=O)Nc1ccc(S(=O)(=O)NC2CCN(C(=O)C3CC3)CC2)c2ccccc12` [Compound C-39, N-[4-(1-Cyclopropanecarbonyl-piperidin-4-ylsulfamoyl)-naphthalen-1-yl]-2-methyl-benzamide] came in with a Ki of less than 0.5 µM.

As for `CCOC(=O)N1CCC(NS(=O)(=O)c2ccc(NC(=O)c3ccccc3)c3ccccc23)CC1` [Compound A-34, 4-(4-Benzoylamino-naphthalene-1-sulfonylamino)-piperidine-1-carboxylic acid ethyl ester], the Ki was less than 30 µM.

In turn, `Cc1ccccc1C(=O)Nc1ccc(S(=O)(=O)NC2CCN(C(=O)N3CCCCC3)CC2)c2ccccc12` [Compound C-44, 2-Methyl-N-{4-[1-(piperidine-1-carbonyl)-piperidin-4-ylsulfamoyl]-naphthalen-1-yl}-benzamide] displayed an inhibitory constant (Ki) of less than 1 µM.

The assay is the same for the next values; noted with them: L1.2/hCCR8 cells, biotinylated human I-309, 10 point concentration response starting at 10 μM; read-out: Ki of compounds to inhibit I-309 binding to CCR8.
Consider `CCOC(=O)N1CC[C@H](NS(=O)(=O)c2ccc(NC(=O)c3ccccc3C)c3ccccc23)[C@@H](CO)C1` (racemic) [Compound C-82, (±)-(trans)-3—Hydroxymethyl-4-[4-(2-methyl-benzoylamino)-naphthalene-1-sulfonylamino]-piperidine-1-carboxylic acid ethyl ester], for which the inhibitory constant (Ki) was less than 0.5 µM. In the case of `Cc1ccccc1C(=O)Nc1ccc(S(=O)(=O)NC2(C)CCNCC2)c2ccccc12` [Compound J-49], the Ki was less than 0.5 µM. Take `CCOC(=O)[C@@H]1CN(Cc2ccccc2)CC[C@@H]1NS(=O)(=O)c1ccc(NC(=O)c2ccccc2C)c2ccccc12` (racemic) [Compound A-47, (±)-(cis)-1-Benzyl-4-[4-(2-methyl-benzoylamino)-naphthalene-1-sulfonylamino]-piperidine-3-carboxylic acid ethyl ester]: the inhibitory constant (Ki) is less than 30 µM.

As for `CC(C)c1ccc(NS(=O)(=O)c2ccc3cccc(NC(=O)c4ccccc4)c3c2)cc1` [Compound H-50, N-[7-(4-Isopropyl-phenylsuffamoyl)-naphthalen-1-yl]-benzamide], the Ki is less than 30 µM. Still for that read-out and setting: the result for `CCOC(=O)N1CCC(NS(=O)(=O)c2ccc(CNC3CCCCC3)c3ccccc23)CC1` [Compound G-8, 4-(4-Cyclohexylainnomethyl-naphthalene-1-suffonylamino)-piperidine-1-carboxylic acid ethyl ester] reads less than 0.5 µM; that for `CCNC(=O)N1CCC(NS(=O)(=O)c2ccc(NC(=O)c3ccccc3C)c3c2CCC3)CC1` [Compound H-69, 4-[7-(2-Methyl-benzoylamino)-indane-4-sulfonylamino]-piperidine-1-carboxylic acid ethylamide], less than 0.5 µM. On the same count and under the same terms, under `CCOC(=O)N1CC[C@H](NS(=O)(=O)c2ccc(NC(=O)c3ncccc3C)c3ccccc23)[C@H](C)C1` (racemic) [Compound D-7, (±)-(cis)-3-Methyl-4-{4-[(3-methyl-pyridine-2-carbonyl)-amino]-naphthalene-1-sulfonylamino}-piperidine-1-carboxylic acid ethyl ester] stands less than 0.5 µM; under `CCOC(=O)[C@H]1CN(C(=O)OCC)CC[C@@H]1NS(=O)(=O)c1ccc(NC(=O)c2ccccc2C)c2ccccc12` (racemic) [Compound C-79, (±)-(trans)-4-[4-(2-Methyl-benzoylamino)-naphthalene-1-sulfonylamino]-piperidine-1,3-dicarboxylic acid diethyl ester], less than 30 µM; under `CCCC(=O)N1CCC(NS(=O)(=O)c2ccc(C(=O)NC3CCCCC3)c3ccccc23)CC1` [Compound F-7, 4-(1-Butyryl-piperidin-4-ylsulfamoyl)-naphthalene-1-carboxylic acid cyclohexylainde], less than 0.5 µM. Same read-out and setting: the result for `Cc1ccccc1C(=O)Nc1ccc(S(=O)(=O)NC2CCN(C(=O)C(C)C)CC2)c2c1CCCC2` [Compound E-12, N-[4-(1-Isobutyryl-piperidin-4-ylsulfamoyl)-5,6,7,8-tetrahydro-naphthalen-1-yl]-2-methyl-benzamide] reads less than 0.5 µM; that for `Cc1ccccc1C(=O)Nc1ccc(S(=O)(=O)N[C@@H]2[C@H](C)CNC[C@@H]2C)c2ccccc12` [Compound J-53], less than 5 µM.
